Experimental data taken from PubChem BioAssay AID1918931 (Molecular Pharmacology Branch, DTP, NCI, 2023).

Test system: 138582-337-R-J1-PDC complex spheroid viability
Assay: Anticancer human tumor 138582-337-R-J1-PDC patient-derived Merkel cell tumor cell line growth inhibition
Details: for IC50: curve of first compound; for viability, T/C: stronger effect = lower value
In short: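 Multicellular complex spheroids of tumor cells with human endothelial cells (HUVEC) and mesenchymal stem cells; the LSD1 inhibitor iadademstat was combined with standard-of-care or investigational agents. Top concentration at or near clinical Cmax, half-log dilutions; final DMSO ≤0.25%.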

[1] = second compound 0.1 µM, first compound 0.0316 µM
[2] = second compound 0.1 µM, first compound 0.1 µM
[3] = second compound 0.1 µM, first compound 0.316 µM
[4] = second compound 0.1 µM, first compound 1 µM
[5] = second compound 0.1 µM, first compound 3.16 µM
[6] = second compound 0.1 µM, first compound 10 µM
[7] = second compound 0.316 µM, first compound 0.0316 µM
[8] = second compound 0.316 µM, first compound 0.1 µM
[9] = second compound 0.316 µM, first compound 0.316 µM
[10] = second compound 0.316 µM, first compound 1 µM
[11] = second compound 0.316 µM, first compound 3.16 µM
[12] = second compound 0.316 µM, first compound 10 µM
[13] = second compound 1 µM, first compound 0.0316 µM
[14] = second compound 1 µM, first compound 0.1 µM
[15] = second compound 1 µM, first compound 0.316 µM
[16] = second compound 1 µM, first compound 1 µM
[17] = second compound 1 µM, first compound 3.16 µM
[18] = second compound 1 µM, first compound 10 µM
[19] = second compound 3.16 µM, first compound 0.0316 µM
[20] = second compound 3.16 µM, first compound 0.1 µM
[21] = second compound 3.16 µM, first compound 0.316 µM
[22] = second compound 3.16 µM, first compound 1 µM
[23] = second compound 3.16 µM, first compound 3.16 µM
[24] = second compound 3.16 µM, first compound 10 µM
[25] = second compound 10 µM, first compound 0.0316 µM
[26] = second compound 10 µM, first compound 0.1 µM
[27] = second compound 10 µM, first compound 0.316 µM
[28] = second compound 10 µM, first compound 1 µM
[29] = second compound 10 µM, first compound 3.16 µM
[30] = second compound 10 µM, first compound 10 µM
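Also: spheroids exposed to agents for 7 days.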
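For viability, T/C in this document: 100% = DMSO vehicle control viability.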

| SMILES | IC50 (second compound 0.1 µM) [µM] | IC50 (second compound 0.316 µM) [µM] | IC50 (second compound 1 µM) [µM] | IC50 (second compound 3.16 µM) [µM] | IC50 (second compound 10 µM) [µM] | viability, T/C [1] [%] | viability, T/C [2] [%] | viability, T/C [3] [%] | viability, T/C [4] [%] | viability, T/C [5] [%] | viability, T/C [6] [%] | viability, T/C [7] [%] | viability, T/C [8] [%] | viability, T/C [9] [%] | viability, T/C [10] [%] | viability, T/C [11] [%] | viability, T/C [12] [%] | viability, T/C [13] [%] | viability, T/C [14] [%] | viability, T/C [15] [%] | also measured |
| --- | --- | --- | --- | --- | --- | --- | --- | --- | --- | --- | --- | --- | --- | --- | --- | --- | --- | --- | --- | --- | --- |
| CC1(C)CCC(CN2CCN(c3ccc(C(=O)NS(=O)(=O)c4ccc(NCC5CCOCC5)c([N+](=O)[O-])c4)c(Oc4cnc5[nH]ccc5c4)c3)CC2)=C(c2ccc(Cl)cc2)C1 + NC1CCC(NC2CC2c2ccccc2)CC1 | > 10 | > 10 | > 10 | > 10 | > 10 | 85.4 | 95 | 92.5 | 91.8 | 90.7 | 126 | 95.9 | 104 | 99.1 | 109 | 96.8 | 88.7 | 99.8 | 89.9 | 82.3 | viability, T/C [16]: 79.9%; viability, T/C [17]: 92.1%; viability, T/C [18]: 81.3%; viability, T/C [19]: 90.7%; viability, T/C [20]: 100%; viability, T/C [21]: 108%; viability, T/C [22]: 106%; viability, T/C [23]: 92.5%; viability, T/C [24]: 77.3%; viability, T/C [25]: 80.2%; viability, T/C [26]: 88.1%; viability, T/C [27]: 70.8%; viability, T/C [28]: 78.7%; viability, T/C [29]: 78.3%; viability, T/C [30]: 63.5% |
| CC1COCCN1c1cc(C2(S(C)(=N)=O)CC2)nc(-c2ccnc3[nH]ccc23)n1 (stereo not given) + NC1CCC(NC2CC2c2ccccc2)CC1 | > 10 | > 10 | > 10 | > 10 | 2.25 | 107 | 91.1 | 83.2 | 89.1 | 63.4 | 49.4 | 105 | 99 | 86.9 | 83 | 64.1 | 52.9 | 88.1 | 93.4 | 100 | viability, T/C [16]: 65.3%; viability, T/C [17]: 59.8%; viability, T/C [18]: 60.9%; viability, T/C [19]: 92.6%; viability, T/C [20]: 93.2%; viability, T/C [21]: 98%; viability, T/C [22]: 78.2%; viability, T/C [23]: 63.1%; viability, T/C [24]: 49.5%; viability, T/C [25]: 87.3%; viability, T/C [26]: 88.1%; viability, T/C [27]: 71%; viability, T/C [28]: 62.1%; viability, T/C [29]: 46.1%; viability, T/C [30]: 21.3% |
